Data taken from patent US20090011051A1, “Methods, Compositions and Articles of Manufacture for HIF Modulating Compounds” (priority 2006, published 2009).
Where two headings read alike, the source gives them in different places.

Key:
humans [1] = conditions: cited from earlier work
rats [2] = conditions: moderate levels, cited from earlier work
[3] = system: nematodes (Caenorhabditis elegans); test: Survival of C. elegans in H2S after pre-treatment with H2S gas (Example 2); format: in vivo; conditions: air plus 200 ppm H2S
rodents = conditions: H2S gas; cited from earlier work
humans [4] = conditions: H2S gas; cited from earlier work
rats [5] = conditions: cited from earlier work
[6] = system: nematodes (Caenorhabditis elegans)
Procedure: Nematodes of each strain in the fourth larval stage were moved onto fresh nematode growth plates. […] The nematodes were removed the next morning and the percent surviving nematodes was determined.

humans [7] = conditions: chronic low-level exposure; cited from earlier work
[8] = extreme levels (500 ppm), followed by recovery; cited from earlier work

SMILES | symptoms (humans [1]; 50 ppm, humans) | symptoms (humans [1]; 200 ppm, within two-three hours) | symptoms (humans [1]; 400 ppm, within one to two hours, may become widespread within three hours) | symptoms (humans [1]; 800 ppm, within 45 minutes) | symptoms (humans [1]; 800 ppm, within two hours) | lethality (humans [1]; around 1000 ppm, an organism, exposure for more than around 1-2 minutes) | discriminated avoidance responses (rats [2]; immediately after the end of the exposure) | learning of baited radial arm maze task (rats [2]) | percent surviving nematodes ([3]; Egl-9 mutant nematodes) | percent surviving nematodes ([3]; wild type nematodes raised in air) | LD50 (rodents) | LD50 (humans [4]) | neuropathology and behavior of exposed rat pups (rats [5]; perinatal study, 80 ppm) | cerebellar Purkinje cell morphology (rats [5]; rats, 20 or 50 ppm, 7 hours per day from gestation through post-natal day 21) | percent surviving nematodes ([6]; nematodes lacking the Egl-9 gene, air plus 100 ppm H2S, in contrast to wild type) | percent surviving nematodes ([6]; nematodes lacking the Hif-1 gene, fourth larval stage, air plus 20 ppm H2S, removed next morning) | percent surviving nematodes ([6]; wild type nematodes, fourth larval stage, air plus 20 ppm H2S, removed next morning) | effects of chronic exposure (humans [7]) | effect of acute exposure (knockdown effect) [8]
[C-]#[O+] [carbon monoxide, Carbon monoxide] | no symptoms | slight headache | frontal headache | dizziness, nausea, and/or convulsions | insensible | can expire | – | – | – | – | – | – | – | – | – | – | – | – | –
S [Compound H2S, Hydrogen sulfide] | – | – | – | – | – | – | inhibits discriminated avoidance responses | interferes with the ability of rats to learn a baited radial arm maze task | survived | unable to survive | approximately 700 ppm | approximately 700 ppm | no neuropathological effects or altered motor activity, passive avoidance, or acoustic startle response | longer dendritic branches with reduced aborization of cerebellar Purkinje cells | survived | unable to survive | able to survive | persistent impairments in balance and memory, as well as altered sensory motor functions | sudden collapse and unconsciousness
